The conditions of data set [1]: 298.15 K; 101.33 kPa; Liquid.
A short description of data set [2]: refractive index (Na D-line) (dimensionless). As to conditions: 293.15 K; 101.33 kPa; Liquid; Standard Abbe refractometry.

The values below come from the NIST ThermoML archive (doi:10.1021/je800345j).

Numbers after ± are expanded uncertainties.

Regarding `CC(=O)CC(C)=O` [2,4-pentanedione], in data set [1], the mass density is listed as 971.9 ± 0.3 kg/m3. In data set [2], the refractive index is listed as 1.4491 ± 0.0004.

For the molecule `CC(=O)O` [acetic acid], in data set [1], the mass density came out at 1047.4 ± 0.3 kg/m3. In data set [2], the refractive index is reported as 1.372 ± 0.0004.

`C=C(C)OC(C)=O` [1-methylvinyl ethanoate]: in data set [1], the mass density is given as 927.8 ± 0.3 kg/m3. Further, the refractive index in data set [2] was 1.4033 ± 0.0004.

Broadly, the mass density is mass per unit of volume. In general, refractive index refers to the speed of light in vacuum divided by its phase velocity in the sample.
